How the values were obtained:
clubroot spores = experiment: Clubroot resting spore mortality by Evans blue staining (Example 2); conditions: positive control, 2% concentration
clubroot resting spores [1] = experiment: Clubroot resting spore mortality by Evans blue staining (Example 5); conditions: all concentrations above 1.5%
clubroot resting spores [2] = experiment: Clubroot resting spore mortality by Evans blue staining, separate test with AES-100; conditions: all concentrations above 1.5%
seeds = experiment: Seed germination in soils saturated with product; conditions: soils saturated with 2% solution

OCl [sodium hypochlorite]
resting spore mortality (clubroot spores): 100% | mortality of clubroot resting spores (clubroot resting spores [1]): 100% | mortality of clubroot resting spores (clubroot resting spores [2]): 100% | seed germination (seeds): no seeds germinated

From patent US12532882B2, “Biocide composition and methods of use” (priority 2017, dated 2026)
